Results as given in US11555012B2 (Nimbus Artemis, Inc., priority 2018, dated 2023).

Columns and labels:
ACL [1] = target: T1, ACL (Homo sapiens (Human), UniProt P53396); assay: ACLY-MDH Coupled Assay
Target sequence in this assay (P53396 whole entry, species assumed): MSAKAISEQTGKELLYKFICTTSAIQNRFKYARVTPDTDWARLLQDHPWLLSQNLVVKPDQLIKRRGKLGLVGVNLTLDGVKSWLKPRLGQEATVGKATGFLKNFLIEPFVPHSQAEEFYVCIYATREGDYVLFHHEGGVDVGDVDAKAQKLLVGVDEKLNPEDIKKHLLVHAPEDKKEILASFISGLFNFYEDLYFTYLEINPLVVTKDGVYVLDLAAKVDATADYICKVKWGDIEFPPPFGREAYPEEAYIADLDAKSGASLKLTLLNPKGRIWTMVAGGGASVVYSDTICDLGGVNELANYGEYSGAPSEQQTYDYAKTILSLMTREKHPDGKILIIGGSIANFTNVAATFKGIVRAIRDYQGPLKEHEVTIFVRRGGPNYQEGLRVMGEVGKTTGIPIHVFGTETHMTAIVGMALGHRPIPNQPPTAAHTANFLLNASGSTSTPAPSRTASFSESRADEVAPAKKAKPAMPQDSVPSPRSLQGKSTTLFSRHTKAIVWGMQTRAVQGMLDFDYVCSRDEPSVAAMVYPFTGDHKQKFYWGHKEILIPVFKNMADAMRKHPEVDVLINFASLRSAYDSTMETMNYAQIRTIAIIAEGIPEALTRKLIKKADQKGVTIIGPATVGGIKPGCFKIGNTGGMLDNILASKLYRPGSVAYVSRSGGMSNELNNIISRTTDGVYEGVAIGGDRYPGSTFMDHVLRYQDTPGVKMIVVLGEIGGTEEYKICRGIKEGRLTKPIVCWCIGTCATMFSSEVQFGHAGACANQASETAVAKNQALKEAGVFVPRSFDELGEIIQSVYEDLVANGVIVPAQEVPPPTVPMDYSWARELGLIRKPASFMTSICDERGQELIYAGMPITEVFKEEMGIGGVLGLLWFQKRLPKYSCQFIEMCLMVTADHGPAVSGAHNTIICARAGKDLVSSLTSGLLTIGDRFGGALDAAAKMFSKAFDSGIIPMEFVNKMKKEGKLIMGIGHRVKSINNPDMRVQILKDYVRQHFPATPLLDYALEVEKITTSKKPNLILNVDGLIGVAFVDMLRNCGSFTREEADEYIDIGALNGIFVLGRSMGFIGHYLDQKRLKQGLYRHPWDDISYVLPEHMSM
Procedure: Compounds of the present invention were evaluated in an ACLY Coupled Assay.
The assay protocol for the Coupled Assay (below) was followed:
b) Add 1 μL cpds to 96 assay plate, Test cpd conc: 100/30/10 μM top dose, 3 folds dilution, 10+0+control (control: buffer without ACL+DMSO) points, 1000 rpm for 1 min, incubation at 25° C. for 60 min

ACL [2] = target: T1, ACL; assay: ADP-Glo Assay
Target sequence in this assay (P53396 other isoform, or with tags, fused parts or gaps isoform P53396-2): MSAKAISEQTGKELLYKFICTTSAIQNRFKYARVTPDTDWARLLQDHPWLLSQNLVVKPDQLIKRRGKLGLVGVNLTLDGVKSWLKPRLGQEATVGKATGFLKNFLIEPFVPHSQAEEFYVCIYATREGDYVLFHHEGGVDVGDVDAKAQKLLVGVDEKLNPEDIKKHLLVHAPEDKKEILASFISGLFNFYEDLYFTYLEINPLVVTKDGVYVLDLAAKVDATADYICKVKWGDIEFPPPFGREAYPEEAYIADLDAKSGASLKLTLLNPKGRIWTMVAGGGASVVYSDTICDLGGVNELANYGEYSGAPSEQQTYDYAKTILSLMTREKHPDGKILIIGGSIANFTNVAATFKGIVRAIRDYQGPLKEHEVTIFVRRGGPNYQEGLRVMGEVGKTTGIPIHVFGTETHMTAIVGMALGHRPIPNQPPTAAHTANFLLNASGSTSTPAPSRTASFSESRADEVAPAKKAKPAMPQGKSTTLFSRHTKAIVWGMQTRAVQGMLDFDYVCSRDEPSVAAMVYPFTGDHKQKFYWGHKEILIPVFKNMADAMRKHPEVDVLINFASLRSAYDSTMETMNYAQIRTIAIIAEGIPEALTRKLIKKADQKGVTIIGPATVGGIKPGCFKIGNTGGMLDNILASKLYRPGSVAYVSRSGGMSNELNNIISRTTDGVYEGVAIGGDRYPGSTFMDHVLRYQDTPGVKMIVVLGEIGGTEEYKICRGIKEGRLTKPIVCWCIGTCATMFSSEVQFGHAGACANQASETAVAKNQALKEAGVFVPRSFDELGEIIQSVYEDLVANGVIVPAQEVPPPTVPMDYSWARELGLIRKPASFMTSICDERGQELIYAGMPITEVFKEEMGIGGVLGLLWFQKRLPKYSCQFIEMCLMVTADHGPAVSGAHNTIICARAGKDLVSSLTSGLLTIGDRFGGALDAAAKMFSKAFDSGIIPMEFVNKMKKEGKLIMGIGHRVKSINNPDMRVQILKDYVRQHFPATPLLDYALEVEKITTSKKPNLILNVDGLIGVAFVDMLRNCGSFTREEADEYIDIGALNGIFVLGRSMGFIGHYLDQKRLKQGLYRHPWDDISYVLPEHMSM

[3] = read-out: ACL-ADP-Glo (IC50), 3 nM ACL, 15 μM ATP, 3 μM CoA, 300 μM Citrate
[4] = read-out: ACL-MDH Coupled Assay (IC50), 8 nM ACL, 60 μM CoA Na2, 85 μM Citrate, 250 μM ATP, 250 μM NADH

SMILES	IC50 (ACL [1])	IC50 (ACL [2])	IC50 (ACL [2]; [3])	IC50 (ACL [1]; [4])
CS(=O)(=O)c1cc(Cl)c(O)c(S(=O)(=O)Nc2cc(-c3ccccc3)c(F)cc2F)c1 [I-124, 3-chloro-N-[4,6-difluoro-[1,1-biphenyl]-3-yl]-2-hydroxy-5-methanesulfonylbenzene-1-sulfonamide]	50 to 500 nM	50 to 500 nM		
O=C(c1cc(Cl)c(O)c(S(=O)(=O)Nc2cc(-c3ccccc3)c(F)cc2F)c1)N1CC(O)C1 [I-129, 3-chloro-N-(4,6-difluoro-[1,1′-biphenyl]-3-yl)-2-hydroxy-5-(3-hydroxyazetidine-1-carbonyl)benzenesulfonamide]	50 to 500 nM		< 50 nM	
O=C(c1cc(Cl)c(O)c(S(=O)(=O)Nc2cc(-c3ccccc3)c(F)cc2F)c1)N1CC(F)C1 [I-130, 3-chloro-N-(4,6-difluoro-[1,1′-biphenyl]-3-yl)-5-(3-fluoroazetidine-1-carbonyl)-2-hydroxybenzenesulfonamide]			< 50 nM	< 50 nM
COc1ccc(-c2ccccc2)cc1NS(=O)(=O)c1cc(-c2nccn2C)cc(Cl)c1O [I-131, 3-chloro-2-hydroxy-N-[4-methoxy-[1,1-biphenyl]-3-yl]-5-(1-methyl-1H-imidazol-2-yl)benzene-1-sulfonamide]	50 to 500 nM	50 to 500 nM		
Cn1ccnc1-c1cc(Cl)c(O)c(S(=O)(=O)Nc2cc(-c3ccccc3)ccc2O)c1 [I-133, 3-chloro-2-hydroxy-N-(4-hydroxy-[1,1′-biphenyl]-3-yl)-5-(1-methyl-1H-imidazol-2-yl)benzenesulfonamide]	500 to 30000 nM	50 to 500 nM		
CC(C)n1c(NS(=O)(=O)c2cc(Cl)cc(Cl)c2O)c(-c2ccc(F)cc2)c2ccccc21 [I-134, 3,5-dichloro-N-(3-(4-fluorophenyl)-1-isopropyl-1H-indol-2-yl)-2-hydroxybenzenesulfonamide]	500 to 30000 nM	500 to 20000 nM		
O=C(c1cc(Cl)c(O)c(S(=O)(=O)Nc2cc(C3CC3)c(F)cc2F)c1)N1CCC1 [I-137, 5-(azetidine-1-carbonyl)-3-chloro-N-(5-cyclopropyl-2,4-difluorophenyl)-2-hydroxybenzene-1-sulfonamide]	50 to 500 nM	50 to 500 nM		
O=C(Nc1cc(-c2ccccc2)c(F)cc1F)c1cc(Br)cc(Cl)c1O [I-139, 5-bromo-3-chloro-N-(4,6-difluoro-[1,1′-biphenyl]-3-yl)-2-hydroxybenzamide]	500 to 30000 nM	500 to 20000 nM		
CO[C@@H]1CCN(C(=O)c2cc(Cl)c(O)c(S(=O)(=O)Nc3cc(-c4ccccc4)ccc3F)c2)C1 [I-141, 3-chloro-N-[4-fluoro-[1,1-biphenyl]-3-yl]-2-hydroxy-5-[(3R)-3-methoxypyrrolidine-1-carbonyl]benzene-1-sulfonamide]	500 to 30000 nM	50 to 500 nM		
CO[C@H]1CCN(C(=O)c2cc(Cl)c(O)c(S(=O)(=O)Nc3cc(-c4ccccc4)ccc3F)c2)C1 [I-142, 3-chloro-N-[4-fluoro-[1,1-biphenyl]-3-yl]-2-hydroxy-5-[(3S)-3-methoxypyrrolidine-1-carbonyl]benzene-1-sulfonamide]			< 50 nM	< 50 nM
O=C(O)COc1c(Cl)cc(Cl)cc1S(=O)(=O)Nc1cc(-c2ccccc2)ccc1F [I-143]	500 to 30000 nM	500 to 20000 nM		
COc1ccc(-c2cccnc2)cc1NS(=O)(=O)c1cc(C(=O)N2CCC2)cc(Cl)c1O [I-144, 5-(azetidine-1-carbonyl)-3-chloro-2-hydroxy-N-[2-methoxy-5-(pyridin-3-yl)phenyl]benzene-1-sulfonamide]	500 to 30000 nM	50 to 500 nM		
COC(=O)c1cc(Cl)c(O)c(C(=O)Nc2cc(-c3ccccc3)c(F)cc2F)c1 [I-146, methyl 3-chloro-5-((4,6-difluoro-[1,1′-biphenyl]-3-yl)carbamoyl)-4-hydroxybenzoate]	500 to 30000 nM	500 to 20000 nM		
O=C(c1cc(Cl)c(O)c(S(=O)(=O)Nc2cc(-c3ccccc3)cc(F)c2F)c1)N1CCC1 [I-160, 5-(azetidine-1-carbonyl)-3-chloro-N-[4,5-difluoro-[1,1-biphenyl]-3-yl]-2-hydroxybenzene-1-sulfonamide]			< 50 nM	< 50 nM

The remaining lines, values ahead:

IC50 (ACL [1])	IC50 (ACL [2])	IC50 (ACL [2]; [3])	IC50 (ACL [1]; [4])	SMILES
		< 50 nM	< 50 nM	C[C@@]1(O)CCN(C(=O)c2cc(Cl)c(O)c(S(=O)(=O)Nc3cc(-c4ccccc4)c(F)cc3F)c2)C1 [I-148, (R)-3-chloro-N-(4,6-difluoro-[1,1′-biphenyl]-3-yl)-2-hydroxy-5-(3-hydroxy-3-methylpyrrolidine-1-carbonyl)benzenesulfonamide]
50 to 500 nM		< 50 nM		C[C@]1(O)CCN(C(=O)c2cc(Cl)c(O)c(S(=O)(=O)Nc3cc(-c4ccccc4)c(F)cc3F)c2)C1 [I-149, (S)-3-chloro-N-(4,6-difluoro-[1,1′-biphenyl]-3-yl)-2-hydroxy-5-(3-hydroxy-3-methylpyrrolidine-1-carbonyl)benzenesulfonamide]
50 to 500 nM	50 to 500 nM			CC(C)C(=O)Oc1c(Cl)cc(C(=O)N2CCC2)cc1S(=O)(=O)Nc1cc(-c2ccccc2)c(F)cc1F [I-158, 4-(azetidine-1-carbonyl)-2-chloro-6-([4,6-difluoro-[1,1-biphenyl]-3-yl]sulfamoyl)phenyl 2-methylpropanoate]
		< 50 nM	< 50 nM	O=C(c1cc(Cl)c(O)c(S(=O)(=O)Nc2cc(-c3ccccc3)cc(F)c2F)c1)N1CCCC1 [I-159, 3-chloro-N-[4,5-difluoro-[1,1-biphenyl]-3-yl]-2-hydroxy-5-(pyrrolidine-1-carbonyl)benzene-1-sulfonamide]
500 to 30000 nM	50 to 500 nM			CC(=O)NC1CN(C(=O)c2cc(Cl)c(O)c(S(=O)(=O)Nc3cc(-c4ccccc4)c(F)cc3F)c2)C1 [I-162, N-[1-[3-chloro-5-([4,6-difluoro-[1,1-biphenyl]-3-yl]sulfamoyl)-4-hydroxybenzoyl]azetidin-3-yl]acetamide]
500 to 30000 nM	500 to 20000 nM			O=C(O)COc1c(Br)cc(C(=O)N2CCC2)cc1S(=O)(=O)Nc1cc(-c2ccccc2)ccc1F [I-192, 2-(4-(azetidine-1-carbonyl)-2-bromo-6-(N-(4-fluoro-[1,1′-biphenyl]-3-yl)sulfamoyl)phenoxy)acetic Acid]
500 to 30000 nM	500 to 20000 nM			O=C(c1cc(Cl)c(O)c(S(=O)(=O)Nc2cc(C3CC3)c(F)cc2F)c1)N1CCCC1 [I-193, 3-chloro-N-(5-cyclopropyl-2,4-difluorophenyl)-2-hydroxy-5-(pyrrolidine-1-carbonyl)benzene-1-sulfonamide]
500 to 30000 nM	50 to 500 nM			O=C(c1cc(Cl)c(O)c(S(=O)(=O)Nc2cc(C3CC3)c(F)cc2F)c1)N1CC(F)C1 [I-194, 3-chloro-N-(5-cyclopropyl-2,4-difluorophenyl)-5-(3-fluoroazetidine-1-carbonyl)-2-hydroxybenzene-1-sulfonamide]
500 to 30000 nM	50 to 500 nM			O=C(c1cc(Cl)c(O)c(S(=O)(=O)Nc2cc(-c3cccnc3)c(F)cc2F)c1)N1CCC1 [I-197, 5-(azetidine-1-carbonyl)-3-chloro-N-[2,4-difluoro-5-(pyridin-3-yl)phenyl]-2-hydroxybenzene-1-sulfonamide]
50 to 500 nM		< 50 nM		NC1CN(C(=O)c2cc(Cl)c(O)c(S(=O)(=O)Nc3cc(-c4ccccc4)c(F)cc3F)c2)C1 [I-200, 5-(3-aminoazetidine-1-carbonyl)-3-chloro-N-[4,6-difluoro-[1,1-biphenyl]-3-yl]-2-hydroxybenzene-1-sulfonamide]
500 to 30000 nM	500 to 20000 nM			CC(C)(C)OC(=O)NC1CN(C(=O)c2cc(Cl)c(O)c(S(=O)(=O)Nc3cc(-c4ccccc4)c(F)cc3F)c2)C1 [I-201, tert-butyl N-[1-[3-chloro-5-([4,6-difluoro-[1,1-biphenyl]-3-yl]sulfamoyl)-4-hydroxybenzoyl]azetidin-3-yl]carbamate]
500 to 30000 nM	50 to 500 nM			O=C(c1cc(Cl)c(O)c(S(=O)(=O)Nc2cc(-c3ccncc3)ccc2F)c1)N1CCC1 [I-202, 5-(azetidine-1-carbonyl)-3-chloro-N-[2-fluoro-5-(pyridin-4-yl)phenyl]-2-hydroxybenzene-1-sulfonamide]
> 30000 nM	500 to 20000 nM			N#Cc1cc(Cl)cc(S(=O)(=O)Nc2cc(-c3cc4ccccc4s3)c(F)cc2F)c1 [I-203, N-(5-(benzo[b]thiophen-2-yl)-2,4-difluorophenyl)-3-chloro-5-cyanobenzenesulfonamide]
50 to 500 nM	50 to 500 nM			O=C(c1cc(Cl)c(O)c(S(=O)(=O)Nc2cc(-c3ccccn3)ccc2F)c1)N1CCC1 [I-206, 5-(azetidine-1-carbonyl)-3-chloro-N-[2-fluoro-5-(pyridin-2-yl)phenyl]-2-hydroxybenzene-1-sulfonamide]
500 to 30000 nM	500 to 20000 nM			O=C(c1cc(Cl)c(O)c(S(=O)(=O)Cc2cc(-c3ccccc3)c(F)cc2F)c1)N1CCCC1 [I-211, (3-chloro-5-(((4,6-difluoro-[1,1′-biphenyl]-3-yl)methyl)sulfonyl)-4-hydroxyphenyl)(pyrrolidin-1-yl)methanone]
500 to 30000 nM	50 to 500 nM			O=C(O)COc1ccc(-c2ccccc2)cc1NS(=O)(=O)c1cc(Cl)cc(Cl)c1O [I-212, 2-[[3-(3,5-dichloro-2-hydroxybenzenesulfonamido)-[1,1-biphenyl]-4-yl]oxy]acetic Acid]
500 to 30000 nM	500 to 20000 nM			O=C(c1cc(Cl)c(O)c(S(=O)(=O)Nc2cc3ccsc3cc2F)c1)N1CCC1 [I-221, 5-(azetidine-1-carbonyl)-3-chloro-N-(6-fluoro-1-benzothiophen-5-yl)-2-hydroxybenzene-1-sulfonamide]
500 to 30000 nM	50 to 500 nM			O=C(c1cc(Cl)c(O)c(S(=O)(=O)Nc2cc(-c3ccccc3)ncc2F)c1)N1CCC1 [I-222, 5-(azetidine-1-carbonyl)-3-chloro-N-(5-fluoro-2-phenylpyridin-4-yl)-2-hydroxybenzene-1-sulfonamide]
